Source: patent US12077503B2, “Substituted cyclic amides and their use as herbicides” (FMC CORPORATION, priority 2015, dated 2024)

What was measured:
Format in all cases: in vivo
Kochia (Kochia scoparia) [1] = assay: Test A preemergence; settings: Bassia scoparia, pre-emergence, 240 h, 0 to 100 scale where 0 is no effect and 100 is complete control, read-out: Kochia plant response rating
Outline: (§1)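 Ratings of 0 (no effect) to 100 (complete control) come from visual comparison with untreated controls roughly 10 d after treatment. Test chemicals, formulated in a non-phytotoxic solvent mixture with surfactant, were applied either as a preemergence directed soil spray on seeded soil or postemergence to one- to two-leaf plants 2 to 10 cm tall.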

[2] = system: barnyardgrass (Echinochloa crus-galli); assay: Test A preemergence; settings: Echinochloa crus-galli, pre-emergence, 240 h, 0 to 100 scale where 0 is no effect and 100 is complete control, read-out: Barnyardgrass plant response rating
Outline: as §1

[3] = system: giant foxtail (Setaria faberii); assay: Test A preemergence; settings: Setaria faberi, pre-emergence, 240 h, 0 to 100 scale where 0 is no effect and 100 is complete control, read-out: Foxtail, Giant plant response rating
Outline: as §1

[4] = system: pigweed (Amaranthus retroflexus); assay: Test A preemergence; settings: Amaranthus retroflexus, pre-emergence, 240 h, 0 to 100 scale where 0 is no effect and 100 is complete control, read-out: Pigweed plant response rating
[5] = system: ragweed (common ragweed, Ambrosia elatior); assay: Test A preemergence; settings: Ambrosia artemisiifolia, pre-emergence, 240 h, 0 to 100 scale where 0 is no effect and 100 is complete control, read-out: Ragweed plant response rating
Outline: as §1

[6] = system: ryegrass, Italian (Italian ryegrass, Lolium multiflorum); assay: Test A preemergence; settings: Lolium multiflorum, pre-emergence, 240 h, 0 to 100 scale where 0 is no effect and 100 is complete control, read-out: Ryegrass, Italian plant response rating
Outline: as §1

[7] = system: Galium (catchweed bedstraw, Galium aparine); assay: Test A postemergence; settings: Galium, post-emergence, 240 h, Postemergence, read-out: Galium plant response rating (0 to 100 scale)
Outline: as §1

Kochia (Kochia scoparia) [8] = assay: Test A postemergence; settings: Bassia scoparia, post-emergence, 240 h, Postemergence, read-out: Kochia plant response rating (0 to 100 scale)
Outline: as §1

[9] = system: barnyardgrass (Echinochloa crus-galli); assay: Test A postemergence; settings: Echinochloa crus-galli, post-emergence, 240 h, Postemergence
Outline: as §1

[10] = system: blackgrass (Alopecurus myosuroides); assay: Test A postemergence; settings: Alopecurus myosuroides, post-emergence, 240 h, Postemergence, read-out: Blackgrass plant response rating (0 to 100 scale)
Outline: as §1

corn (Zea mays) = assay: Test A postemergence; settings: Zea mays, post-emergence, 240 h, Postemergence, read-out: Corn plant response rating (0 to 100 scale)
Outline: as §1

[11] = system: giant foxtail (Setaria faberii); assay: Test A postemergence; settings: Setaria faberi, post-emergence, 240 h, Postemergence, read-out: Foxtail, Giant plant response rating (0 to 100 scale)
Outline: as §1

[12] = system: pigweed (Amaranthus retroflexus); assay: Test A postemergence; settings: Amaranthus retroflexus, post-emergence, 240 h, Postemergence, read-out: Pigweed plant response rating (0 to 100 scale)
Outline: as §1

[13] = system: ragweed (common ragweed, Ambrosia elatior); assay: Test A postemergence; settings: Ambrosia artemisiifolia, post-emergence, 240 h, Postemergence, read-out: Ragweed plant response rating (0 to 100 scale)
Outline: as §1

[14] = system: ryegrass, Italian (Italian ryegrass, Lolium multiflorum); assay: Test A postemergence; settings: Lolium multiflorum, post-emergence, 240 h, Postemergence, read-out: Ryegrass, Italian plant response rating (0 to 100 scale)
Outline: as §1

[15] = system: wheat (Triticum aestivum); assay: Test A postemergence; settings: Triticum aestivum, post-emergence, 240 h, Postemergence, read-out: Wheat plant response rating (0 to 100 scale)
Outline: as §1

[16] = system: barnyardgrass (Echinochloa crus-galli); assay: Test B flooded paddy test; settings: Echinochloa crus-galli, 250 g ai/ha, Flood; 0 to 100 scale where 0 is no effect and 100 is complete control; read-out: Barnyardgrass plant response rating
Outline: (§2)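 Percent control, visually estimated after 13–15 d in the greenhouse on a 0–100 basis, compares treated pots with untreated ones; compound was put into paddy water 3 cm above the soil when plants had two leaves.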

[17] = system: ducksalad (Heteranthera limosa); assay: Test B flooded paddy test; settings: Heteranthera limosa, 250 g ai/ha, Flood; 0 to 100 scale where 0 is no effect and 100 is complete control; read-out: Ducksalad plant response rating
Outline: as §2

rice (Oryra sativa) = assay: Test B flooded paddy test; settings: Oryza sativa, 250 g ai/ha, Flood; 0 to 100 scale where 0 is no effect and 100 is complete control; read-out: Rice plant response rating
Outline: as §2

[18] = system: sedge, umbrella (small-flower umbrella sedge, Cyperus difformis); assay: Test B flooded paddy test; settings: Cyperus difformis, 250 g ai/ha, Flood; 0 to 100 scale where 0 is no effect and 100 is complete control; read-out: Sedge, Umbrella plant response rating
Outline: as §2

[19] = 125 g ai/ha, preemergence, visual injury rating, approximately 10 d
[20] = 125 g ai/ha, visual rating about 10 d after treatment
[21] = 31 g ai/ha, 0 is no effect, 100 is complete control

CN1C[C@H](c2csc3c2CCC3)[C@@H](C(=O)Nc2ccccc2F)C1=O [Compound 1277]
pest or weed control at 31 g/ha (Kochia (Kochia scoparia) [1]; 31 g ai/ha, Preemergence): 0% | pest or weed control at 125 g/ha (Kochia (Kochia scoparia) [1]; [19]): 0% | pest or weed control at 31 g/ha ([2]; 31 g ai/ha, Preemergence): 80% | pest or weed control at 125 g/ha [2, 19]: 100% | pest or weed control at 31 g/ha ([3]; 31 g ai/ha, Preemergence): 90% | pest or weed control at 125 g/ha [3, 19]: 100% | pest or weed control at 31 g/ha ([4]; 31 g ai/ha, Preemergence): 0% | pest or weed control at 125 g/ha [4, 19]: 0% | pest or weed control at 31 g/ha ([5]; 31 g ai/ha, Preemergence): 0% | pest or weed control at 125 g/ha [5, 19]: 0% | pest or weed control at 31 g/ha ([6]; 31 g ai/ha, Preemergence): 0% | pest or weed control at 125 g/ha [6, 19]: 0% | pest or weed control at 125 g/ha [7, 20]: 0% | pest or weed control at 31 g/ha [7, 21]: 0% | pest or weed control at 125 g/ha (Kochia (Kochia scoparia) [8]; [20]): 0% | pest or weed control at 31 g/ha (Kochia (Kochia scoparia) [8]; [21]): 0% | pest or weed control at 125 g/ha ([9]; 125 g ai/ha, visual rating about 10 d after treatment, read-out: Barnyardgrass plant response rating (0 to 100 scale, 0 no effect, 100 complete control)): 80% | pest or weed control at 31 g/ha ([9]; 31 g ai/ha, 0 is no effect, 100 is complete control, read-out: Barnyardgrass plant response rating (0 to 100 scale)): 30% | pest or weed control at 125 g/ha [10, 20]: 0% | pest or weed control at 31 g/ha [10, 21]: 0% | plant injury at 125 g/ha (corn (Zea mays); [20]): 0% | plant injury at 31 g/ha (corn (Zea mays); [21]): 0% | pest or weed control at 125 g/ha [11, 20]: 70% | pest or weed control at 31 g/ha [11, 21]: 50% | pest or weed control at 125 g/ha [12, 20]: 0% | pest or weed control at 31 g/ha [12, 21]: 0% | pest or weed control at 125 g/ha [13, 20]: 30% | pest or weed control at 31 g/ha [13, 21]: 30% | pest or weed control at 125 g/ha [14, 20]: 0% | pest or weed control at 31 g/ha [14, 21]: 0% | plant injury at 125 g/ha [15, 20]: 0% | plant injury at 31 g/ha [15, 21]: 0% | pest or weed control at 250 g/ha [16]: 40% | pest or weed control at 250 g/ha [17]: 60% | pest or weed control at 250 g/ha (rice (Oryra sativa)): 25% | pest or weed control at 250 g/ha [18]: 0%
